In paper PMC6073313, “Comparison of the Anion Inhibition Profiles of the α-CA Isoforms (SpiCA1, SpiCA2 and SpiCA3) from the Scleractinian Coral Stylophora pistillata” (International Journal of Molecular Sciences, 2018):
Read-outs that look alike come from different tables or passages of the source.

Molecular target: T1, SpiCA3 (Stylophora pistillata, UniProt A0A1B0Y357)
T1 construct: gene CA3
T1 sequence (A0A1B0Y357 1-258): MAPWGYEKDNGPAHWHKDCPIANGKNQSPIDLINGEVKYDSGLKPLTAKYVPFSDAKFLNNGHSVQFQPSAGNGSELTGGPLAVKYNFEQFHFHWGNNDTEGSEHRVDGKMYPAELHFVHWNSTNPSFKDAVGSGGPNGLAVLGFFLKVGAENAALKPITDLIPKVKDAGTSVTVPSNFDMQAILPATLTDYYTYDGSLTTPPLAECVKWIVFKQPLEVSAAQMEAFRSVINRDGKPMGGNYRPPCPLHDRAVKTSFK
Test: stopped-flow CO2 hydration, phenol red, Cheng-Prusoff
Format: biochemical

[1] = read-out: KI [mM] ^# / SpiCA3 ^c

Row | Compound | Ki | Ki [1]
1 | N#C[SeH] [SeCN^−] | 0.15 mM | 
2 | O=S(=O)(O)C(F)(F)F [Triflate] | 0.29 mM | 
3 | [N-]=[N+]=[N-] [N3^−] | 0.08 mM | 
4 | I [I^−] | 0.56 mM | 
5 | NS(N)(=O)=O [H2NSO2NH2] |  | 0.0007 mM
6 | O=NO [NO2^−] | 0.45 mM | 
7 | S=C(S)S [CS3^2^−] |  | 0.47 mM
8 | O=C(O)O [HCO3^−] | 0.4 mM | 
9 | NS(=O)(=O)O [H2NSO3H] |  | > 100 mM
10 | Cl [Cl^−] | 0.51 mM | 
11 | OB(O)c1ccccc1 [Ph-B(OH)2] | > 100 mM | 
12 | CCN(CC)C(=S)S [Et2NCS2^−] |  | 0.044 mM
13 | S [HS^−] | 0.34 mM | 
